Reference: patent US20070053931A1, “Dietary supplements for treating hypertension” (ULTRA BIOTECH LIMITED, priority 2002, published 2007)

Test system: Wistar rats
Test: Control of essential hypertension in Wistar rats (testosterone propionate-induced blood pressure elevation)
Assay type: in vivo, rat
Protocol: Unless otherwise specified, all compositions of interest were administered to the animals by intragastric feeding.
To test the ability of the activated yeast compositions to reduce blood pressure, thirty-two healthy Wistar rats of average weight of about 200±20 g (8-10 months old, half of them male and the other half female) were randomly divided into four equal groups, Groups A, B, C and D. Blood pressure of each rat was measured with a manometer for three consecutive days. After three days, each rat was subcutaneously injected with 4 mg of testosterone propionate in 0.4 ml of sesame oil per day for fourteen consecutive days.
A composition of interest (2 ml/kg/day) was then administered to each rat for sixteen consecutive days, while their blood pressure level was monitored every four days. Rats in Groups A, B, C and D received distilled water, reserpine, the activated yeast composition and the control yeast composition, respectively.

Q: How did the “Blood Pressure After Administration of a Composition” value (Wistar rats made hypertensive with 4 mg/day s.c. testosterone propionate for 14 days, composition 2 ml/kg/day intragastric for sixteen consecutive days) turn out when COC(=O)[C@H]1[C@H]2C[C@@H]3c4[nH]c5cc(OC)ccc5c4CCN3C[C@H]2C[C@@H](OC(=O)c2cc(OC)c(OC)c(OC)c2)[C@@H]1OC [reserpine] was run?
A: The value was 15.3 ± 0.89 kPa.

Q: And the “Change in Blood Pressure (Value in Col. 3 − Value in Col. 2)” value (after administration of composition vs after testosterone injection, 2 ml/kg/day intragastric, 16 days)?
A: The value was 1.4 ± 0.33 kPa.
